The record followed here is PubChem BioAssay (NCI).

Experiment in all cases: NCI-60 cell line screen, 48 h
Experiment [1] concerns HCT-15 colon.
The test system of experiment [2] is HCT-116 colon.
Experiment [3] concerns SN12C renal.
For experiment [4], the system named is SF-295 CNS.
In experiment [5] the test system is M14 melanoma.
In experiment [6] the test system is UO-31 renal.
In experiment [7] the test system is OVCAR-4 ovarian.
The subject of experiment [8] is UACC-257 melanoma.
In experiment [9] the test system is OVCAR-8 ovarian.
Experiment [10] concerns NCI-H226 lung.
Experiment [11] has as its system DU-145 prostate.
Experiment [12] deals with LOX IMVI melanoma.

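Interpolation was linear, between the two tested concentrations surrounding the appropriate level; five concentrations were tested over 48 hours in 96-well plates. TGI: concentration producing complete growth inhibition.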

For the compound `C[n+]1c2ccccc2c(NC(CCC(N)=O)C(=O)O)c2ccccc21` (stereo not given), the TGI in [1], in [2], in [3], in experiment [4], in experiment [5] and in experiment [6] was more than 100 µM throughout. Moreover, the TGI in experiment [7], in experiment [8], in [9] and in experiment [10] was more than 100 µM in each case.

Turning to `COc1cc(Cn2c3c(c4cc(O)ccc42)C(=O)c2ccccc2C3=O)cc(OC)c1`, the TGI in [1] was more than 100 µM; in experiment [2], 12.7 µM; in experiment [3], 42.2 µM; in experiment [4], 23.6 µM; in experiment [5], 67.5 µM; in experiment [6] it was 30.4 µM. Also, the TGI in [11] is 60.6 µM; in [7], 33.6 µM; in experiment [8], more than 100 µM; in experiment [12], more than 100 µM; in experiment [9], 19.1 µM.

On to `COc1ccc(C2=C(OC(C)=O)c3cccn3-c3ccccc3S2)cc1`, for which the TGI in experiment [1] is more than 10 µM; in experiment [3], more than 10 µM; in experiment [4], 5.03 µM; in experiment [5], more than 10 µM; in experiment [11], more than 10 µM; in [7], more than 10 µM. Also, the TGI in [8], in [12] and in [9] was more than 10 µM each time.

Turning to `CC(C)NC(C)Cc1ccccc1` (stereo not given), the TGI in experiment [1], in experiment [2], in experiment [3], in experiment [4], in experiment [5] and in experiment [6] was more than 100 µM throughout. Besides, the TGI in [7], in experiment [8], in experiment [12], in [9] and in experiment [10] was more than 100 µM throughout.

In the case of `Cc1ccc(N2C(=O)/C(=c3\s/c(=C(/N)O)c(=N)n3-c3ccccc3)SC2=S)cc1`, the TGI in experiment [2], in [4], in [6], in [8], in [9] and in experiment [10] was more than 100 µM in each case.

With `CCC12C=CCN3CC[C@]4(C(=C(C(=O)OC)[C@@H]1Nc1ccn(C5OC(COC(C)=O)C(OC(C)=O)C5OC(C)=O)c(=O)n1)Nc1ccccc14)C32` (stereo not given in full), the TGI in [1] worked out at 6.83 µM; in experiment [2], 7.37 µM; in [3], 8.24 µM; in [4] it was 10.2 µM; in [5] it was 8.51 µM; in experiment [6], 7.64 µM. In addition, the TGI in experiment [7] turned out to be 3.57 µM; in [8], 3.62 µM; in experiment [12], 7.81 µM; in experiment [9] it was 11 µM; in experiment [10], 8.25 µM.

For the compound `CCOc1ccc(N=Cc2cc(OC)c(OC)c(OC)c2)cc1`, the TGI in experiment [1], in experiment [2], in [3], in experiment [4], in [5] and in [6] was more than 100 µM in each case. Besides, the TGI in [7], in experiment [8], in experiment [12] and in experiment [9] was more than 100 µM in each case.

Regarding `CC1=NN(C(=O)c2ccc(Cl)cc2)C(=O)/C1=C/c1cccc(O)c1`, the TGI in experiment [1], in experiment [2], in experiment [3], in [4], in experiment [5] and in experiment [6] was more than 100 µM in each case. For the same compound, the TGI in experiment [7], in [8], in [12], in experiment [9] and in experiment [10] was more than 100 µM each time.

On to `CCN(CC)CC(C)(C)C(=O)/C=C/c1ccc(C)cc1`, for which the TGI in experiment [1] was 14.8 µM; in experiment [2], 27.4 µM; in experiment [3], 19.8 µM; in experiment [4] it was 26.1 µM; in [5], 25 µM; in experiment [6], 22.2 µM. Also, the values for the TGI in experiment [7], in [12] and in [9] were 24.4 µM, 24.1 µM and 31.4 µM, respectively.

For the compound `Nc1nc(=O)n(C2OC(CO)C(O)C2O)cc1F` (stereo not given), the TGI in experiment [1], in experiment [2], in experiment [3], in [4], in experiment [6] and in experiment [7] was more than 100 µM each time. Further, the TGI in experiment [8] is more than 100 µM; in experiment [12] it was more than 38 µM; in experiment [9] it was more than 100 µM; in [10], more than 100 µM.

For the compound `OCCOCCO[P+]1(OCCOCCO)n2c3ccc2C(c2ccccc2)=C2C=CC(=N2)C(c2ccccc2)=c2ccc(n21)=C(c1ccccc1)C1=NC(=C3c2ccccc2)C=C1`, the TGI was found to be 3.21 µM in [1]; 0.358 µM in experiment [2]; 1.03 µM in [4]; 1.38 µM in experiment [5]; 1.72 µM in [11]; 1.05 µM in experiment [7]. Further, the TGI is 0.124 µM in experiment [8], 0.952 µM in [12] and 2.09 µM in experiment [9].

`CN1c2ccccc2C2c3c(O)ccc(O)c3C=C([N+](=O)[O-])C21` (stereo not given): the TGI in experiment [1] turned out to be 6.41 µM; in experiment [2] it was 0.651 µM; in experiment [4], 8.29 µM; in [5] it was 1.44 µM; in experiment [6] it was 2.1 µM; in [7], 2.81 µM. The TGI in experiment [8] is 0.516 µM; in experiment [10], more than 92.9 µM.

Take `Cc1ccc2c(c1)NC(=O)C(N=[N+]=[N-])(c1ccccc1)C2=O` (stereo not given): the TGI amounted to 52.2 µM in experiment [1]; 79.4 µM in experiment [2]; 48.2 µM in experiment [3]; 78.1 µM in [4]; 33 µM in experiment [5]; 90.7 µM in [6]. Moreover, the TGI was more than 100 µM in experiment [7], 79.7 µM in experiment [8], 37.7 µM in experiment [12] and 58.7 µM in experiment [9].

As to `Cc1c2n(c3ccccc13)CC1C2N(C)OC1(C)C` (stereo not given), the TGI in [1], in experiment [2], in [3], in [4], in experiment [5] and in [6] was more than 100 µM throughout. Further, the TGI in [7], in experiment [8], in [9] and in experiment [10] was more than 100 µM in each case.
